# Molecular target: Fascin (Homo sapiens) (UniProt Q16658)
# Assay: Inhibition of purified fascin (unknown origin) assessed as reduction in bundle activity at 50 uM pre-incubated for 30 mins before polymerized actin addition and followed by Alexa fluro 488 phalloidin addition after 30 mins and measured after 1 hr under dark condition relative to control
# Details: not given
row,SMILES,inhibition [%]
1,Cc1occc1C(=O)Nc1nn(Cc2ccc(C(F)(F)F)cc2)c2cncc(Cl)c12,< 10
2,N#Cc1ccccc1C(=O)Cc1nn(Cc2ccc(C(F)(F)F)cc2)c2ccccc12,< 10
3,O=[N+]([O-])c1cn(Cc2ccc(C(F)(F)F)cc2)c2ccc(Br)cc12,< 10
4,O=C(Nc1nn(Cc2ccc(C(F)(F)F)cc2)c2ccccc12)c1ccc(Cl)cc1,< 10
5,CC(=O)Nc1nn(Cc2ccc(C(F)(F)F)cc2)c2cncc(Cl)c12,< 10
6,Cc1occc1-c1nn(Cc2ccc(C(F)(F)F)cc2)c2ccccc12,< 10
7,FC(F)(F)c1ccc(Cn2nc(-c3ccccc3)c3ccccc32)cc1,< 10
8,CNc1nn(Cc2ccc(C(F)(F)F)cc2)c2cncc(Cl)c12,< 10
9,O=C(Nc1nn(Cc2ccc(C(F)(F)F)cc2)c2cncc(Cl)c12)c1ccoc1,< 10
10,CCCC(=O)Nc1nn(Cc2ccc(C(F)(F)F)cc2)c2cncc(Cl)c12,< 10

# More lines, now with the values ahead:
row,inhibition [%],SMILES
1,< 10,FC(F)(F)c1ccc(Cn2nc(-c3ccoc3)c3ccccc32)cc1
2,< 10,Cc1ccc(-c2ccc(C(=O)Nc3nn(Cc4ccc(C(F)(F)F)cc4)c4ccccc34)o2)cc1
3,< 10,Cc1ccc(-c2nn(Cc3ccc(C(F)(F)F)cc3)c3ccccc23)o1
4,< 10,Cc1nocc1C(=O)Nc1nn(Cc2ccc(C(F)(F)F)cc2)c2cncc(Cl)c12
5,< 10,O=C(Nc1nn(Cc2ccc(C(F)(F)F)cc2)c2ccccc12)c1cccc(Cl)c1
6,< 10,Cc1ncsc1C(=O)Nc1nn(Cc2ccc(C#N)cc2)c2ccccc12
7,< 10,FC(F)(F)c1ccc(Cn2nc(-c3cccc4ccccc34)c3ccccc32)cc1
8,< 10,O=[N+]([O-])c1cn(Cc2ccccc2)c2ccc(Br)cc12
9,< 10,FC(F)(F)c1ccc(Cn2nc(Br)c3ccccc32)cc1

# Test system: 4T1
# Assay: Antitumor activity against mouse 4T1 cells implanted in Balb/c mouse assessed as reduction in tumor growth in lungs at 100 mg/kg, administered daily for 2 weeks starting 7 days after tumor implantation and measured on day 28 by methylene blue staining based assay relative to control
# Type: functional
# Details: read-out: TGI
row,SMILES,inhibition in vivo at 100 mg/kg [%]
1,Cc1ncsc1C(=O)Nc1nn(Cc2ccc(C(F)(F)F)cc2)c2ccccc12,> 90
2,Cc1occc1C(=O)Nc1nn(Cc2ccc(C(F)(F)F)cc2)c2ccccc12 [NP-G2-044],> 90
